Test results taken from patent US10499642B2, “Isoxazoline-substituted benzamides and analogues as insecticides” (SYNGENTA PARTICIPATIONS AG, priority 2015, dated 2019).

Legend:
Type in all cases: in vivo
Spodoptera littoralis = Spodoptera littoralis (Egyptian cotton leaf worm) cotton leaf disc test; conditions: foliar, 72 h, read-out: control (at least one of mortality, anti-feedant effect, and growth inhibition)
How it was run: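 Cotton leaf discs on agar were sprayed with aqueous dilutions of 10′000 ppm DMSO stocks, dried and infested with five L1 larvae. Mortality, anti-feedant effect and growth inhibition were scored against untreated samples 3 days after infestation. Control = any of these higher than untreated.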

Plutella xylostella = Plutella xylostella (diamond back moth) artificial diet test; conditions: 120 h, read-out: effect in at least one of the two categories (mortality or growth inhibition)
How it was run: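 Artificial diet treated with aqueous compound solutions made from DMSO stocks, dried, then infested with L2 larvae (10 to 15 per well). Mortality and growth inhibition scored versus untreated controls 5 days after infestation. Application rate 200 ppm.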

Diabrotica Balteata = assay: Diabrotica balteata (corn root worm) maize sprout test; conditions: 96 h, read-out: effect in at least one of the two categories (mortality or growth inhibition)
How it was run: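 Maize sprouts on agar were sprayed with aqueous test solutions made from 10′000 ppm DMSO stocks, dried, then infested with 6 to 10 L2 larvae per well. Mortality and growth inhibition versus untreated samples were assessed 4 days after infestation; application rate 200 ppm.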

Thrips tabaci = Thrips tabaci (onion thrips) sunflower leaf disc test; conditions: foliar, 144 h
Procedure: Thrips tabaci (Onion Thrips):
Sunflower leaf discs were placed on agar in 24-well microtiter plates and sprayed with aqueous test solutions prepared from 10′000 ppm DMSO stock solutions. After drying the leaf discs were infested with a thrips population of mixed ages. The samples were assessed for mortality 6 days after infestation.

Tetranychus urticae = Tetranychus urticae (two-spotted spider mite) bean leaf disc test; conditions: foliar, 192 h
Procedure: Tetranychus urticae (Two-Spotted Spider Mite):
Bean leaf discs on agar in 24-well microtiter plates were sprayed with aqueous test solutions prepared from 10′000 ppm DMSO stock solutions. After drying the leaf discs were infested with a mite population of mixed ages. The samples were assessed for mortality on mixed population (mobile stages) 8 days after infestation.

Myzus persicae = Myzus persicae (green peach aphid) sunflower leaf disc test; conditions: foliar, 144 h
Procedure: Myzus persicae (Green Peach Aphid):
Sunflower leaf discs were placed on agar in a 24-well microtiter plate and sprayed with test solutions at an application rate of 200 ppm. After drying, the leaf discs were infested with an aphid population of mixed ages. After an incubation period of 6 days after treatment, samples were checked for mortality. The following compounds gave at least 80% mortality of Myzus persicae: […]

CC(=O)C1=NOC(NC(=O)c2ccc(C3=NO[C@@](c4cc(Cl)c(F)c(Cl)c4)(C(F)(F)F)C3)cc2C)C1 (stereo partly drawn) [Compound A015, N-(3-acetyl-4,5-dihydroisoxazol-5-yl)-4-[(5S)-5-(3,5-dichloro-4-fluoro-phenyl)-5-(trifluoromethyl)-4H-isoxazol-3-yl]-2-methyl-benzamide]
≥ 80%: percent control (mortality, anti-feedant effect or growth inhibition) at 200 ppm (Spodoptera littoralis) | percent effect (mortality or growth inhibition) at 200 ppm (Plutella xylostella) | percent effect (mortality or growth inhibition) at 200 ppm (Diabrotica Balteata) | mortality at 200 ppm (Thrips tabaci) | mortality at 200 ppm (Tetranychus urticae) | mortality at 200 ppm (Myzus persicae)

COC1=NOC(NC(=O)c2ccc(C3=NO[C@@](c4cc(Cl)c(Cl)c(Cl)c4)(C(F)(F)F)C3)cc2C)C1 (stereo partly drawn) [Compound A041]
≥ 80%: percent control (mortality, anti-feedant effect or growth inhibition) at 200 ppm (Spodoptera littoralis) | percent effect (mortality or growth inhibition) at 200 ppm (Plutella xylostella) | percent effect (mortality or growth inhibition) at 200 ppm (Diabrotica Balteata) | mortality at 200 ppm (Thrips tabaci) | mortality at 200 ppm (Tetranychus urticae) | mortality at 200 ppm (Myzus persicae)

Cc1cc(C2=NO[C@@](c3cc(Cl)c(Cl)c(Cl)c3)(C(F)(F)F)C2)ccc1C(=O)NC1CC(OCC(F)F)=NO1 (stereo partly drawn) [Compound A127, N-[3-(2,2-difluoroethoxy)-4,5-dihydroisoxazol-5-yl]-2-methyl-4-[(5S)-5-(3,4,5-trichlorophenyl)-5-(trifluoromethyl)-4H-isoxazol-3-yl]benzamide]
≥ 80%: percent control (mortality, anti-feedant effect or growth inhibition) at 200 ppm (Spodoptera littoralis) | percent effect (mortality or growth inhibition) at 200 ppm (Plutella xylostella) | percent effect (mortality or growth inhibition) at 200 ppm (Diabrotica Balteata) | mortality at 200 ppm (Thrips tabaci) | mortality at 200 ppm (Tetranychus urticae) | mortality at 200 ppm (Myzus persicae)

Cc1cc(C2=NO[C@@](c3cc(Cl)c(F)c(Cl)c3)(C(F)(F)F)C2)ccc1C(=O)NC1CC(CO)=NO1 (stereo partly drawn) [Compound A087, 4-[(5S)-5-(3,5-dichloro-4-fluoro-phenyl)-5-(trifluoromethyl)-4H-isoxazol-3-yl]-N-[3-(hydroxymethyl)-4,5-dihydroisoxazol-5-yl]-2-methyl-benzamide]
≥ 80%: percent control (mortality, anti-feedant effect or growth inhibition) at 200 ppm (Spodoptera littoralis) | percent effect (mortality or growth inhibition) at 200 ppm (Plutella xylostella) | percent effect (mortality or growth inhibition) at 200 ppm (Diabrotica Balteata) | mortality at 200 ppm (Thrips tabaci) | mortality at 200 ppm (Tetranychus urticae) | mortality at 200 ppm (Myzus persicae)

Cc1cc(C2=NO[C@@](c3cc(Cl)c(Cl)c(Cl)c3)(C(F)(F)F)C2)ccc1C(=O)NC1CC(OCc2ccccn2)=NO1 (stereo partly drawn) [Compound A112, 2-methyl-N-[3-(2-pyridylmethoxy)-4,5-dihydroisoxazol-5-yl]-4-[(5S)-5-(3,4,5-trichlorophenyl)-5-(trifluoromethyl)-4H-isoxazol-3-yl]benzamide]
≥ 80%: percent control (mortality, anti-feedant effect or growth inhibition) at 200 ppm (Spodoptera littoralis) | percent effect (mortality or growth inhibition) at 200 ppm (Plutella xylostella) | percent effect (mortality or growth inhibition) at 200 ppm (Diabrotica Balteata) | mortality at 200 ppm (Thrips tabaci) | mortality at 200 ppm (Tetranychus urticae) | mortality at 200 ppm (Myzus persicae)

Cc1cc(C2=NO[C@@](c3cc(Cl)c(Cl)c(Cl)c3)(C(F)(F)F)C2)ccc1C(=O)NC1CC(Cl)=NO1 (stereo partly drawn) [Compound A013, N-(3-chloro-4,5-dihydroisoxazol-5-yl)-2-methyl-4-[(5S)-5-(3,4,5-trichlorophenyl)-5-(trifluoromethyl)-4H-isoxazol-3-yl]benzamide]
≥ 80%: percent control (mortality, anti-feedant effect or growth inhibition) at 200 ppm (Spodoptera littoralis) | percent effect (mortality or growth inhibition) at 200 ppm (Plutella xylostella) | percent effect (mortality or growth inhibition) at 200 ppm (Diabrotica Balteata) | mortality at 200 ppm (Thrips tabaci) | mortality at 200 ppm (Tetranychus urticae) | mortality at 200 ppm (Myzus persicae)

CC1=NOC(NC(=O)c2ccc(C3=NO[C@@](c4cc(Cl)c(F)c(Cl)c4)(C(F)(F)F)C3)cc2Br)C1 (stereo partly drawn) [Compound A036, 2-bromo-4-[(5S)-5-(3,5-dichloro-4-fluoro-phenyl)-5-(trifluoromethyl)-4H-isoxazol-3-yl]-N-(3-methyl-4,5-dihydroisoxazol-5-yl)benzamide]
≥ 80%: percent control (mortality, anti-feedant effect or growth inhibition) at 200 ppm (Spodoptera littoralis) | percent effect (mortality or growth inhibition) at 200 ppm (Plutella xylostella) | percent effect (mortality or growth inhibition) at 200 ppm (Diabrotica Balteata) | mortality at 200 ppm (Thrips tabaci) | mortality at 200 ppm (Tetranychus urticae) | mortality at 200 ppm (Myzus persicae)

Cc1cc(C2=NO[C@@](c3cc(Cl)c(F)c(Cl)c3)(C(F)(F)F)C2)ccc1C(=O)NC1CC(OCC(F)(F)C(F)C(F)(F)F)=NO1 (stereo partly drawn) [Compound A075]
≥ 80%: percent control (mortality, anti-feedant effect or growth inhibition) at 200 ppm (Spodoptera littoralis) | percent effect (mortality or growth inhibition) at 200 ppm (Plutella xylostella) | percent effect (mortality or growth inhibition) at 200 ppm (Diabrotica Balteata) | mortality at 200 ppm (Thrips tabaci) | mortality at 200 ppm (Tetranychus urticae) | mortality at 200 ppm (Myzus persicae)

CCCOC1=NOC(NC(=O)c2ccc(C3=NO[C@@](c4cc(Cl)c(F)c(Cl)c4)(C(F)(F)F)C3)cc2C)C1 (stereo partly drawn) [Compound A070]
≥ 80%: percent control (mortality, anti-feedant effect or growth inhibition) at 200 ppm (Spodoptera littoralis) | percent effect (mortality or growth inhibition) at 200 ppm (Plutella xylostella) | percent effect (mortality or growth inhibition) at 200 ppm (Diabrotica Balteata) | mortality at 200 ppm (Thrips tabaci) | mortality at 200 ppm (Tetranychus urticae) | mortality at 200 ppm (Myzus persicae)

Cc1cc(C2=NO[C@@](c3cc(Cl)c(Cl)c(Cl)c3)(C(F)(F)F)C2)ccc1C(=O)NC1CC(C#N)=NO1 (stereo partly drawn) [Compound A145, N-(3-cyano-4,5-dihydroisoxazol-5-yl)-2-methyl-4-[(5S)-5-(3,4,5-trichlorophenyl)-5-(trifluoromethyl)-4H-isoxazol-3-yl]benzamide]
≥ 80%: percent control (mortality, anti-feedant effect or growth inhibition) at 200 ppm (Spodoptera littoralis) | percent effect (mortality or growth inhibition) at 200 ppm (Plutella xylostella) | percent effect (mortality or growth inhibition) at 200 ppm (Diabrotica Balteata) | mortality at 200 ppm (Thrips tabaci) | mortality at 200 ppm (Tetranychus urticae) | mortality at 200 ppm (Myzus persicae)

CCC1=NOC(NC(=O)c2ccc(C3=NO[C@@](c4cc(Cl)c(F)c(Cl)c4)(C(F)(F)F)C3)cc2C)C1 (stereo partly drawn) [Compound A026, 4-[(5S)-5-(3,5-dichloro-4-fluoro-phenyl)-5-(trifluoromethyl)-4H-isoxazol-3-yl]-N-(3-ethyl-4,5-dihydroisoxazol-5-yl)-2-methyl-benzamide]
≥ 80%: percent control (mortality, anti-feedant effect or growth inhibition) at 200 ppm (Spodoptera littoralis) | percent effect (mortality or growth inhibition) at 200 ppm (Plutella xylostella) | percent effect (mortality or growth inhibition) at 200 ppm (Diabrotica Balteata) | mortality at 200 ppm (Thrips tabaci) | mortality at 200 ppm (Tetranychus urticae) | mortality at 200 ppm (Myzus persicae)

Cc1cc(C2=NO[C@@](c3cc(Cl)c(F)c(Cl)c3)(C(F)(F)F)C2)ccc1C(=O)NC1CC(N(C)C)=NO1 (stereo partly drawn) [Compound A105, 4-[(5S)-5-(3,5-dichloro-4-fluoro-phenyl)-5-(trifluoromethyl)-4H-isoxazol-3-yl]-N-[3-(dimethylamino)-4,5-dihydroisoxazol-5-yl]-2-methyl-benzamide]
≥ 80%: percent control (mortality, anti-feedant effect or growth inhibition) at 200 ppm (Spodoptera littoralis) | percent effect (mortality or growth inhibition) at 200 ppm (Plutella xylostella) | percent effect (mortality or growth inhibition) at 200 ppm (Diabrotica Balteata) | mortality at 200 ppm (Thrips tabaci) | mortality at 200 ppm (Tetranychus urticae) | mortality at 200 ppm (Myzus persicae)

Cc1cc(C2=NO[C@@](c3cc(Cl)cc(Cl)c3)(C(F)(F)F)C2)ccc1C(=O)N(C=O)C1CC(C(F)(F)F)=NO1 (stereo partly drawn) [Compound A138]
≥ 80%: percent control (mortality, anti-feedant effect or growth inhibition) at 200 ppm (Spodoptera littoralis) | percent effect (mortality or growth inhibition) at 200 ppm (Plutella xylostella) | percent effect (mortality or growth inhibition) at 200 ppm (Diabrotica Balteata) | mortality at 200 ppm (Thrips tabaci) | mortality at 200 ppm (Tetranychus urticae) | mortality at 200 ppm (Myzus persicae)

COCCOC1=NOC(NC(=O)c2ccc(C3=NO[C@@](c4cc(Cl)c(F)c(Cl)c4)(C(F)(F)F)C3)cc2C)C1 (stereo partly drawn) [Compound A076]
≥ 80%: percent control (mortality, anti-feedant effect or growth inhibition) at 200 ppm (Spodoptera littoralis) | percent effect (mortality or growth inhibition) at 200 ppm (Plutella xylostella) | percent effect (mortality or growth inhibition) at 200 ppm (Diabrotica Balteata) | mortality at 200 ppm (Thrips tabaci) | mortality at 200 ppm (Tetranychus urticae) | mortality at 200 ppm (Myzus persicae)
